From article PMC9516332 (Frontiers in Oncology, 2022) come the findings set out here.

What all share (test): Kinase panel profiling at 1 µmol/L (MSA or IMAP), percentage inhibition
What all share (assay type): biochemical

Experiment [1] has as its target panel of 255 wild-type kinases (Homo sapiens, UniProt P53355). Particulars: kinase DAPK1; 1 µmol/L single concentration; read-out: %-inhibition at 1 µmol/L, DAPK1.
For experiment [2], the target named is panel of 255 wild-type kinases (Homo sapiens, UniProt O75582). Particulars: MSK1; 1 µmol/L single concentration; read-out: %-inhibition, MSK1.
Experiment [3] has as its target panel of 255 wild-type kinases (Homo sapiens, UniProt Q15759). The conditions noted are these: p38β; 1 µmol/L single concentration; read-out: %-inhibition, p38β.
Experiment [4] has as its system panel of 255 wild-type kinases.
In experiment [5] the target is panel of 255 wild-type kinases (Homo sapiens, UniProt Q9HC98). The conditions noted are these: NEK6; 1 µmol/L single concentration; read-out: %-inhibition, NEK6.
In experiment [6] the target is panel of 255 wild-type kinases (Homo sapiens, UniProt P49760). The conditions noted are these: kinase CLK2; 1 µmol/L single concentration; read-out: %-inhibition at 1 µmol/L, CLK2.
Experiment [7] addresses panel of 255 wild-type kinases (Homo sapiens, UniProt Q9Y6M4). The conditions noted are these: kinase CK1γ3; 1 µmol/L single concentration; read-out: %-inhibition at 1 µmol/L, CK1γ3.
For experiment [8], the target named is panel of 255 wild-type kinases (Homo sapiens, UniProt Q96RG2). Particulars: PASK; 1 µmol/L single concentration; read-out: %-inhibition, PASK.
Experiment [9] concerns the target panel of 255 wild-type kinases (Homo sapiens, UniProt P16234). Particulars: kinase PDGFRα; 1 µmol/L single concentration; read-out: %-inhibition at 1 µmol/L, PDGFRα.
The target of experiment [10] is panel of 255 wild-type kinases (Homo sapiens, UniProt Q13153). The conditions noted are these: PAK1; 1 µmol/L single concentration; read-out: %-inhibition, PAK1.
Experiment [11] addresses panel of 255 wild-type kinases (Homo sapiens, UniProt P24723). Particulars: kinase PKCη; 1 µmol/L single concentration; read-out: %-inhibition at 1 µmol/L, PKCη.
Experiment [12] has as its target panel of 255 wild-type kinases (Homo sapiens, UniProt P12931). Particulars: kinase SRC; 1 µmol/L single concentration; read-out: %-inhibition at 1 µmol/L, SRC.
Experiment [13] concerns the target panel of 255 wild-type kinases (Homo sapiens, UniProt P27448). Particulars: MARK3; 1 µmol/L single concentration; read-out: %-inhibition, MARK3.
The target in experiment [14] is panel of 255 wild-type kinases (Homo sapiens, UniProt P28482). Particulars: kinase Erk2; 1 µmol/L single concentration; read-out: %-inhibition at 1 µmol/L, Erk2.
Experiment [15] concerns the target T1, panel of 255 wild-type kinases (Homo sapiens, UniProt Q9BXA7).
T1 sequence (Q9BXA7 1-367): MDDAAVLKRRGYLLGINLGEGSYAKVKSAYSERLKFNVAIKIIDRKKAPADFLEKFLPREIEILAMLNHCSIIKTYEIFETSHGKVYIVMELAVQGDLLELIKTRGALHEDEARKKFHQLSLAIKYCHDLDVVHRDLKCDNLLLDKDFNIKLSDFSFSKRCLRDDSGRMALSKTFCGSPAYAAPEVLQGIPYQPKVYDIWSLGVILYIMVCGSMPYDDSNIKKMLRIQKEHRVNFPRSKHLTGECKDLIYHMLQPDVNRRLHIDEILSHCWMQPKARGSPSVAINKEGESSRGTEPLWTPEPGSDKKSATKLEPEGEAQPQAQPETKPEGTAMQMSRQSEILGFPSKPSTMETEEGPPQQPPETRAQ
Particulars: kinase TSSK1; 1 µmol/L single concentration; read-out: %-inhibition at 1 µmol/L, TSSK1.

The target in experiment [16] is T2, panel of 255 wild-type kinases (Homo sapiens, UniProt Q08881).
T2 sequence (Q08881 1-620): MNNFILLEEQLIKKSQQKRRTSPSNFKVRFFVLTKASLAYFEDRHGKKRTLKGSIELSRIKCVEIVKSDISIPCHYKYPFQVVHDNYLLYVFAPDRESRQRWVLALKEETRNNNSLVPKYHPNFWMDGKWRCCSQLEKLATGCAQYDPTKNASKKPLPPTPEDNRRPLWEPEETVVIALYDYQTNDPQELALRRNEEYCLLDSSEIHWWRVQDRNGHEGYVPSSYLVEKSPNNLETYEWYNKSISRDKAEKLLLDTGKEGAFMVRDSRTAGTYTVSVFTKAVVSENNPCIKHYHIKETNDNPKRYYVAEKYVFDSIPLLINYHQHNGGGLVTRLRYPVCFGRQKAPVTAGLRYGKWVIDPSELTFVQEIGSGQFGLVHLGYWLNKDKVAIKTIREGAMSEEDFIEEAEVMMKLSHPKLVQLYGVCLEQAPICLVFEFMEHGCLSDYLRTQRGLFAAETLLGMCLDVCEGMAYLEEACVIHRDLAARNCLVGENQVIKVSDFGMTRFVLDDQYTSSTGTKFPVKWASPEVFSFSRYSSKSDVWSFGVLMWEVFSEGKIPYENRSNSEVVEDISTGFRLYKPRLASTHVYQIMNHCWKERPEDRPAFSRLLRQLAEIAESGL
The conditions noted are these: kinase ITK; 1 µmol/L single concentration; read-out: %-inhibition at 1 µmol/L, ITK.

The target in experiment [17] is panel of 255 wild-type kinases (Homo sapiens, UniProt O94804). The conditions noted are these: kinase LOK; 1 µmol/L single concentration; read-out: %-inhibition at 1 µmol/L, LOK.
In experiment [18] the target is panel of 255 wild-type kinases (Homo sapiens, UniProt P16591). Particulars: kinase FER; 1 µmol/L single concentration; read-out: %-inhibition at 1 µmol/L, FER.
Experiment [19] deals with panel of 255 wild-type kinases (Homo sapiens, UniProt P27361). The conditions noted are these: kinase Erk1; 1 µmol/L single concentration; read-out: %-inhibition at 1 µmol/L, Erk1.
[20] abbreviates: kinase FYN [isoform b], 1 µmol/L single concentration.
The mark [21] stands for this setting: kinase LYNb, 1 µmol/L single concentration.
The mark [22] stands for this setting: kinase PKCβ2, 1 µmol/L single concentration.
Where [23] appears, read: kinase SRM, 1 µmol/L single concentration.

Read-outs that look alike come from different tables or passages of the source.

With `COC(=O)N[C@@H](C)CNc1nccc(-c2cn(C(C)C)nc2-c2cc(Cl)cc(NS(C)(=O)=O)c2F)n1` [encorafenib], the inhibition at 1 µM is -1% in [1]; 11% in [2]; 56% in experiment [3]; -2.36% in experiment [5]; 0.465% in experiment [6]; 10% in experiment [7]. Further, the inhibition at 1 µM in experiment [8] is -3%; in experiment [9], 4%; in experiment [10], 12%; in experiment [11], 13%; in experiment [12], -2.16%; in [13] it was 8%. Moreover, the inhibition at 1 µM in experiment [14] is 2.55%; in experiment [15], 3%; in experiment [16], 3.49%; in experiment [17], 1.24%; in [18], 5%; in experiment [19] it was -0.942%. The “%-inhibition at 1 µmol/L, FYN [isoform b]” value (shortened to “%-inhibition … [isoform b]”) in [4] (setting [20]) turned out to be 4.62%. The “%-inhibition at 1 µmol/L, LYNb” value in experiment [4] (setting [21]) came to 4%. Further, in [4] (setting [22]), the “%-inhibition at 1 µmol/L, PKCβ2” value is reported as 2.15%. For the same compound, the “%-inhibition at 1 µmol/L, SRM” value in [4] (setting [23]) is listed as 85%.

In the case of `CN1CCN(c2ccc(C(=O)Nc3n[nH]c4ccc(Cc5cc(F)cc(F)c5)cc34)c(NC3CCOCC3)c2)CC1` [entrectinib], the inhibition at 1 µM is 16% in [1]; 0.468% in experiment [2]; 7.47% in experiment [3]; -1.86% in experiment [5]; 28% in [6]; 0.879% in [7]. Further, the inhibition at 1 µM in [8] was 1.19%; in experiment [9], 29%; in experiment [10] it was -10%; in experiment [11] it was 19%; in experiment [12], 95%; in experiment [13], 15%. Moreover, the inhibition at 1 µM in experiment [14] was -0.572%; in experiment [15], 8%; in experiment [16], 99%; in experiment [17], 28%; in [18] it was 99%; in [19], -0.529%. The “%-inhibition … [isoform b]” value in experiment [4] was determined as 95%. Also, the “%-inhibition at 1 µmol/L, LYNb” value in experiment [4] is 72%. Also, the “%-inhibition at 1 µmol/L, PKCβ2” value in [4] is given as 14%. For the same compound, the “%-inhibition at 1 µmol/L, SRM” value in experiment [4] came to 72%. Besides, the “number of the 255 profiled kinases inhibited by more than 50%” value in experiment [4] is recorded as 75.

On to `CCc1nc(C(N)=O)c(Nc2ccc(N3CCC(N4CCN(C)CC4)CC3)c(OC)c2)nc1NC1CCOCC1` [gilteritinib], for which the inhibition at 1 µM in [1] is 71%; in [2], 25%; in experiment [3] it was 6%; in [5], -2%; in [6], 39%; in experiment [7] it was 11%. Moreover, the inhibition at 1 µM worked out at 2.54% in [8]; 95% in experiment [9]; 4% in [10]; 13% in experiment [11]; 89% in experiment [12]; 52% in experiment [13]. In addition, the inhibition at 1 µM in experiment [14] is -1.15%; in experiment [15], 95%; in experiment [16], 92%; in experiment [17] it was 100%; in experiment [18], 99%; in experiment [19] it was 1.85%. Further, the “%-inhibition … [isoform b]” value in experiment [4] (setting [20]) is listed as 86%. Further, the “%-inhibition at 1 µmol/L, LYNb” value in [4] (setting [21]) amounted to 84%. Besides, in [4] (setting [22]), the “%-inhibition at 1 µmol/L, PKCβ2” value is recorded as 31%. Besides, the “%-inhibition at 1 µmol/L, SRM” value in experiment [4] (setting [23]) was determined as 23%.

Turning to `CCN1CCN(c2ccc(Nc3cc(N(C)C(=O)Nc4c(Cl)c(OC)cc(OC)c4Cl)ncn3)cc2)CC1` [infigratinib], the inhibition at 1 µM in experiment [1] was -3%; in experiment [2], 2.27%; in [3], -1.57%; in experiment [5], -2.62%; in [6], 15%; in experiment [7] it was -1.16%. The inhibition at 1 µM in experiment [8] was -1.46%; in [9], 59%; in experiment [10] it was 5%; in experiment [11], 2%; in [12], 37%; in experiment [13] it was -7.59%. In addition, the inhibition at 1 µM was -4% in experiment [14]; 3.24% in experiment [15]; 6% in [16]; 34% in [17]; 9.48% in [18]; -4% in experiment [19]. Besides, in experiment [4] (setting [20]), the “%-inhibition … [isoform b]” value worked out at 43%. Also, the “%-inhibition at 1 µmol/L, LYNb” value in experiment [4] (setting [21]) turned out to be 84%. Besides, the “%-inhibition at 1 µmol/L, PKCβ2” value in experiment [4] (setting [22]) was found to be 1.5%. For the same compound, the “%-inhibition at 1 µmol/L, SRM” value in experiment [4] (setting [23]) was -2.75%.

As for `O=C(Nc1cnn2ccc(N3CCC[C@@H]3c3cc(F)ccc3F)nc12)N1CC[C@H](O)C1` [larotrectinib], the inhibition at 1 µM in experiment [1] is -4%; in experiment [2], -0.0628%; in [3], -0.0712%; in experiment [5] it was 0.246%; in experiment [6], 9%; in [7], -0.832%. Also, the inhibition at 1 µM in experiment [8] was 0.745%; in [9], 2.45%; in experiment [10], -3.56%; in [11] it was 1.58%; in [12], -4.39%; in experiment [13], 4%. Also, the inhibition at 1 µM in [14] was -6%; in experiment [15], 4%; in experiment [16], 13%; in [17] it was 5.3%; in [18] it was 3.72%; in experiment [19], -14%. In [4] (1 µmol/L inhibitor), the “kinases inhibited by more than 50%” value is “TRKA, TRKB, TRKC, ROS1, and ACK1”. Besides, in experiment [4] (setting [20]), the “%-inhibition … [isoform b]” value is 1.64%. Also, in [4] (setting [21]), the “%-inhibition at 1 µmol/L, LYNb” value turned out to be 1.48%. For the same compound, in experiment [4] (setting [22]), the “%-inhibition at 1 µmol/L, PKCβ2” value is -2%. For the same compound, the “%-inhibition at 1 µmol/L, SRM” value in experiment [4] (setting [23]) is -3.2%.
